Data taken from publication PMC11200585, “Prospects for Prostate Cancer Chemotherapy: Cytotoxic Evaluation and Mechanistic Insights of Quinolinequinones with ADME/PK Profile” (Biomedicines, 2024).

Key:
[1] = tested on: DU-145 cells; assay: Scratch assay (cell migration); type: cell-based; conditions: Homo sapiens, 24 h, read-out: DU-145 cell migration inhibited
Method: DU-145 cells were grown in 6-well plates until they reached confluence. A straight-line scratch was then carefully created in the cell layer using a sterile pipette tip. The medium was replaced to remove any detached cells. The cells were treated with varying concentrations of AQQ1 (1, 2.5, and 5 µM) along with negative control for 24 h and the cells were allowed to migrate into the denuded area. The brightfield images were taken under the microscope at 0 h and over 24 h. The extent of wound closure is quantified by measuring the change in the width of the scratch with Fiji Image J wound healing size macro [20].

[2] = tested on: DU-145 cells; assay: Colony formation assay; type: cell-based, human; conditions: 24 h treatment, 10 days growth
Method: DU-145 cells were seeded in 6-well plates at a density of 1000 cells/well and allowed to incubate overnight. Then, the cells were treated with varying concentrations of AQQ1 (1, 2.5, and 5 µM) along with negative control and 2.5 µM DOXO for 24 h. After a medium refreshment, the cells were allowed to grow for 10 days. After incubation, the colonies are fixed with cold methanol for 5 min and then stained with a 0.5% crystal violet solution (prepared in 10% methanol) for 20 min. The plates were allowed to air-dry and the colonies were counted manually.

[3] = tested on: DU-145 cells; assay: Apoptosis necrosis analysis (Annexin V-FITC / PI flow cytometry); type: cell-based, human; conditions: 1, 2.5, 5 µM, 24 h
Method: To assess cellular apoptosis and necrosis, a fluorochrome-labelled Annexin V (FITC) and Propidium Iodide (PI) staining kit (SONY Biotechnology, San Jose, CA, USA) was used according to the manufacturer’s protocol. DU-145 cells were initially seeded at a density of 1 × 10^6 cells per well in 6-well plates. After an incubation period, the cells were treated with varying concentrations of AQQ1 (1, 2.5, and 5 µM) along with negative control for 24 h. Then, the cells were detached using trypsin and then suspended in 500 µL of 1× Binding Buffer. Subsequently, 3 µL of Propidium Iodide (PI) and 5 µL of Annexin V-FITC were added to the cell suspension, followed by a 15 min incubation at room temperature in the dark. Post-incubation, cell analysis was performed via flow cytometry using the BD FACS Calibur Flow Cytometry System. The percentages of apoptotic and necrotic cells were determined using BD CellQuest Pro Software version 5.1 (both from Becton Dickinson, Sunnyvale, CA, USA).

[4] = tested on: M14; assay: NCI-60 one-dose screen (melanoma); type: cell-based, human; conditions: 10 µM single dose, 48 h
[5] = tested on: RXF 393; assay: NCI-60 one-dose screen (renal cancer); type: cell-based, human; conditions: 10 µM single dose, 48 h
[6] = tested on: CAKI-1; assay: NCI-60 one-dose screen (renal cancer); type: cell-based, human; conditions: 10 µM single dose, 48 h

Row | SMILES | inhibition at 1 µM ([1]; 1 μM) [%] | inhibition at 2.5 µM ([1]; 2.5 μM) [%] | inhibition at 5 µM ([1]; 5 μM) [%] | colony-forming ability [2] | live and necrotic cell counts [3] | GP (growth percentage) [4] [%] | GP (growth percentage) [5] [%] | GP (growth percentage) [6] [%]
1 | COc1ccccc1NC1=C(Cl)C(=O)c2nc(C)ccc2C1=O [AQQ1] | 13.4 | 23.7 | 49.8 | significantly reduced the colony-forming ability | reduced live cell counts and increased necrotic cells |  |  | 
2 | COc1cc(NC2=C(Cl)C(=O)c3nc(C)ccc3C2=O)cc(OC)c1 [AQQ5] |  |  |  |  |  | −95.99 | −97.24 | −96.53
